Assay results: patent publication US20260209215A1, “GLYCINE DERIVATIVES WITH P2X4 RECEPTOR-BLOCKING ACTIVITY AS DIAGNOSTICS AND FOR THE TREATMENT OF PAIN, INFLAMMATION, CANCER, AND OTHER P2X4 RECEPTOR-RELATED DISEASES” (RHEINISCHE-FRIEDRICH-WILHELMS-UNIVERSITÄT BONN, priority 2022, published 2026)
pIC50: −log10 of the molar value.

molecular target: T1, P2X4 receptor (Homo sapiens, UniProt Q99571); experiment: Measurement of Ca2+ influx in transfected 1321N1 astrocytoma cells (P2X4 inhibitory potency); assay type: cell-based; conditions: agonist-mediated Ca2+ influx, FLUO-4, 1321N1 astrocytoma cells; antagonists added 30 min before agonist
T1 construct: expressed in transfected cells; host or cells: 1321N1 astrocytoma cells, retroviral vector pQCXIN, G418 selection, monoclones
T1 sequence (Q99571 1-388): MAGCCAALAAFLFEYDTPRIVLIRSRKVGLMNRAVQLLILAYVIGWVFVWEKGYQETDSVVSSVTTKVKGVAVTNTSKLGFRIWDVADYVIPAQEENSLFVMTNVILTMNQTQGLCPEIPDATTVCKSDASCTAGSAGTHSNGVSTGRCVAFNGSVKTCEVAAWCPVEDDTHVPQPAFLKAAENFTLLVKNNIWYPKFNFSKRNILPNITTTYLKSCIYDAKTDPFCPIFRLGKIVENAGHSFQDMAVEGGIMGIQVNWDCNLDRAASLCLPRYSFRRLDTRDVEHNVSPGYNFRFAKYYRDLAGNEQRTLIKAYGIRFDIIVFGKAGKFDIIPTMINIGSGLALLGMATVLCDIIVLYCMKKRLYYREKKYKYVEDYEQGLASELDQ
Method in brief: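 Stable 1321N1 astrocytoma cells expressing human P2X4, loaded with FLUO-4 AM (2.4 μM) in HBSS/HEPES pH 7.3 for 1 h at 23 °C. Antagonists added 30 min before agonist; fluorescence at 520 nm recorded for 30 s. Compounds tested at 7–8 concentrations spanning three log units.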

pIC50	Structure (SMILES)
< 7.00	Cc1nsc(-c2ccc(C)c(NCC(=O)N3CCc4c3ccnc4C(C)(C)O)c2)n1 [Example 90, 1-(4-(2-Hydroxypropan-2-yl)-2,3-dihydro-1H-pyrrolo[3,2-c]pyridin-1-yl)-2-((2-methyl-5-(3-methyl-1,2,4-thiadiazol-5-yl)phenyl)amino)ethan-1-one]
< 7.00	Cc1nsc(-c2ccc(C)c(NCC(=O)N3CCc4c3cncc4C(C)(C)O)c2)n1 [Example 91, 1-(4-(2-Hydroxypropan-2-yl)-2,3-dihydro-1H-pyrrolo[2,3-c]pyridin-1-yl)-2-((2-methyl-5-(3-methyl-1,2,4-thiadiazol-5-yl)phenyl)amino)ethan-1-one]
< 7.00	Cc1nsc(-c2ccc(C)c(NCC(=O)N3CCc4c3ccnc4C(C)O)c2)n1 (centres unmarked) [Example 92, 1-(4-(1-hydroxyethyl)-2,3-dihydro-1H-pyrrolo[3,2-c]pyridin-1-yl)-2-((2-methyl-5-(3-methyl-1,2,4-thiadiazol-5-yl)phenyl)amino)ethan-1-one]
7.72 to 10.00	COc1ccc(-c2nc(C)ns2)cc1NCC(=O)c1c[nH]c2c(OC)cccc12 [Example 93, 1-(7-methoxy-1H-indol-3-yl)-2-((2-methoxy-5-(3-methyl-1,2,4-thiadiazol-5-yl)phenyl)-amino)ethan-1-one]
7.72 to 10.00	COc1cc2[nH]cc(C(=O)CNc3cc(-c4nc(C)ns4)ccc3OC)c2cc1F [Example 94, 1-(5-fluoro-6-methoxy-1H-indol-3-yl)-2-((2-methoxy-5-(3-methyl-1,2,4-thiadiazol-5-yl)phenyl)amino)ethan-1-one]
7.72 to 10.00	COc1ccc2c(C(=O)CNc3cc(-c4nc(C)ns4)ccc3C)c[nH]c2n1 [Example 95, 1-(6-methoxy-1H-pyrrolo[2,3-b]pyridin-3-yl)-2-((2-methyl-5-(3-methyl-1,2,4-thiadiazol-5-yl)phenyl)amino)ethan-1-one]
7.72 to 10.00	CCc1noc(-c2ccc(OC)c(NCC(=O)c3c[nH]c4cc(OC)ccc34)c2)n1 [Example 96, 2-((5-(3-ethyl-1,2,4-oxadiazol-5-yl)-2-methoxyphenyl)amino)-1-(6-methoxy-1H-indol-3-yl)ethan-1-one]
7.72 to 10.00	CCc1noc(-c2ccc(OC)c(NCC(=O)c3c[nH]c4cc(OC)c(F)cc34)c2)n1 [Example 97, 2-((5-(3-ethyl-1,2,4-oxadiazol-5-yl)-2-methoxyphenyl)amino)-1-(5-fluoro-6-methoxy-1H-indol-3-yl) ethan-1-one]
7.72 to 10.00	CCc1noc(-c2ccc(OC)c(NCC(=O)c3cn(C)c4cc(OC)c(F)cc34)c2)n1 [Example 98, 2-((5-(3-ethyl-1,2,4-oxadiazol-5-yl)-2-methoxyphenyl)amino)-1-(5-fluoro-6-methoxy-1-methyl-1H-indol-3-yl) ethan-1-one]
7.41 to 7.70	Cc1nsc(-c2ccc(C)c(NCC(=O)c3cn4c5c(cccc35)C(=O)NCC4)c2)n1 [Example 99, 7-((2-methyl-5-(3-methyl-1,2,4-thiadiazol-5-yl)phenyl)glycyl)-3,4-dihydro-[1,4]diazepino[6,7,1-hi] indol-1(2H)-one]
7.41 to 7.70	Cc1nsc(-c2ccc(C)c(NCC(=O)c3c[nH]c4ncccc34)c2)n1 [Example 100, 2-((2-methyl-5-(3-methyl-1,2,4-thiadiazol-5-yl)phenyl)amino)-1-(1H-pyrrolo [2,3-b]pyridin-3-yl) ethan-1-one]
7.41 to 7.70	COc1cc2[nH]cc(C(=O)CNc3cc(-c4nc(C)ns4)cc(F)c3OC)c2cc1F [Example 101, 2-((3-fluoro-2-methoxy-5-(3-methyl-1,2,4-thiadiazol-5-yl)phenyl)amino)-1-(5-fluoro-6-methoxy-1H-indol-3-yl)ethan-1-one]
7.41 to 7.70	Cc1nsc(-c2ccc(C)c(NCC(=O)c3c[nH]c4ccccc34)c2)n1 [Example 102, 1-(1H-indol-3-yl)-2-((2-methyl-5-(3-methyl-1,2,4-thiadiazol-5-yl)phenyl)amino)ethan-1-one]
7.41 to 7.70	Cc1nsc(-c2ccc(C)c(NCC(=O)c3cn4c5c(cccc35)CCC4)c2)n1 [Example 103, 1-(5,6-dihydro-4H-pyrrolo[3,2,1-ij]quinolin-1-yl)-2-((2-methyl-5-(3-methyl-1,2,4-thiadiazol-5-yl)phenyl)amino)ethan-1-one]
7.41 to 7.70	COc1ccc(-c2nc(C)ns2)cc1NCC(=O)c1c[nH]c2c3c(ccc12)CCC3 [Example 104, 2-((2-methoxy-5-(3-methyl-1,2,4-thiadiazol-5-yl)phenyl)amino)-1-(1,6,7,8-tetrahydrocyclopenta[g]indol-3-yl)ethan-1-one]
7.41 to 7.70	Cc1nsc(-c2ccc(C)c(NCC(=O)c3cn4c5c(cccc35)OCC(C)(O)C4)c2)n1 (centres unmarked) [Example 105, 1-(3-hydroxy-3-methyl-3,4-dihydro-2H-[1,4]oxazepino[2,3,4-hi]indol-7-yl)-2-((2-methyl-5-(3-methyl-1,2,4-thiadiazol-5-yl)phenyl)-amino)ethan-1-one]

pIC50	Structure (SMILES)
7.16 to 7.40	Cc1nc(-c2ccc(C)c(NCC(=O)c3c[nH]c4ccccc34)c2)no1 [Example 106, 1-(1H-indol-3-yl)-2-((2-methyl-5-(5-methyl-1,2,4-oxadiazol-3-yl)phenyl)amino)ethan-1-one]
7.00 to 7.15	CCc1noc(-c2cc(NCC(=O)c3c[nH]c4cc(OC)c(Br)cc34)c(OC)cc2Br)n1 [Example 108, 2-(4-bromo-5-(3-ethyl-1,2,4-oxadiazol-5-yl)-2-methoxyphenylamino)-1-(5-bromo-6-methoxy-1H-indol-3-yl) ethanone]
7.16 to 7.40	CCc1noc(-c2cc(NCC(=O)c3c[nH]c4cc(OC)ccc34)c(OC)cc2Br)n1 [Example 109, 2-((4-bromo-5-(3-ethyl-1,2,4-oxadiazol-5-yl)-2-methoxy-phenyl)amino)-1-(6-methoxy-1H-indol-3-yl)ethan-1-one]
7.41 to 7.70	COc1nccc2c(C(=O)CNc3cc(-c4nc(C)ns4)ccc3C)c[nH]c12 [Example 110, 1-(7-methoxy-1H-pyrrolo[2,3-c]pyridin-3-yl)-2-((2-methyl-5-(3-methyl-1,2,4-thiadiazol-5-yl)phenyl)amino) ethan-1-one]
7.16 to 7.40	CCc1noc(-c2ccc(C)c(NCC(=O)c3cn(C)c4ccccc34)c2)n1 [Example 111, 2-((5-(3-ethyl-1,2,4-oxadiazol-5-yl)-2-methylphenyl)amino)-1-(1-methyl-1H-indol-3-yl)ethan-1-one]
7.72 to 10.00	Cc1nsc(-c2ccc(C)c(NCC(=O)c3c[nH]c4c(C(C)O)cccc34)c2)n1 (centres unmarked) [Example 112, 1-(7-(1-hydroxyethyl)-1H-indol-3-yl)-2-((2-methyl-5-(3-methyl-1,2,4-thiadiazol-5-yl)phenyl)amino)ethan-1-one]
7.16 to 7.40	Cc1ccc(-c2ccc(C(C)C)cn2)cc1NCC(=O)N1CCc2c(OCCOCCO)cccc21 [Example 113, 1-(4-(2-(2-hydroxyethoxy)ethoxy)indolin-1-yl)-2-((5-(5-isopropylpyridin-2-yl)-2-methylphenyl)amino) ethan-1-one]
7.16 to 7.40	Cc1ccc(-c2ccc(C3CC3)cn2)cc1NCC(=O)N1CCc2c(OCC(C)(C)O)cccc21 [Example 114, 2-((5-(5-cyclopropyl-pyridin-2-yl)-2-methyl-phenyl)amino)-1-(4-(2-hydroxy-2-methyl-propoxy)indolin-1-yl) ethan-1-one]
7.16 to 7.40	Cc1ccc(-c2ccc(Cl)cn2)cc1NCC(=O)N1CCc2c(OCC(C)(C)O)cccc21 [Example 115, 2-((5-(5-chloropyridin-2-yl)-2-methylphenyl)amino)-1-(4-(2-hydroxy-2-methyl-propoxy)-indolin-1-yl)ethan-1-one]
7.00 to 7.15	Cc1ccc(-c2ccc(C)c(NCC(=O)N3CCc4c(CO)cccc43)c2)nc1 [Example 116, 1-(4-(hydroxymethyl)indolin-1-yl)-2-((2-methyl-5-(5-methylpyridin-2-yl)phenyl)amino)ethan-1-one]
7.16 to 7.40	Cc1ccc(-c2ccc(C)c(NCC(=O)N3CCc4c(OCC(C)(C)O)cccc43)c2)nc1 [Example 117, 1-(4-(2-hydroxy-2-methylpropoxy)indolin-1-yl)-2-((2-methyl-5-(5-methylpyridin-2-yl)phenyl)amino)ethan-1-one]
7.16 to 7.40	COc1ccc(-c2ccc(C)cn2)cc1NCC(=O)N1CCc2cc(F)c(F)cc21 [Example 118, 1-(5,6-difluoroindolin-1-yl)-2-((2-methoxy-5-(5-methylpyridin-2-yl)phenyl)amino)ethan-1-one]
7.00 to 7.15	COC(=O)c1cccc2c1CCN2C(=O)CNc1cc(-c2ccc(C)cn2)ccc1OC [Example 119, methyl 1-((2-methoxy-5-(5-methylpyridin-2-yl)phenyl)glycyl) indoline-4-carboxylate]
7.16 to 7.40	COc1ccc(-c2ccc(C)cn2)cc1NCC(=O)N1CCc2c(OC)cccc21 [Example 120, 2-((2-methoxy-5-(5-methyl-pyridin-2-yl)phenyl)amino)-1-(4-methoxyindolin-1-yl) ethan-1-one]
< 7.00	COc1ccc(-c2cc(C)c(C)cn2)cc1NCC(=O)N1CCc2c(O)cccc21 [Example 121, 2-((5-(4,5-dimethyl-pyridin-2-yl)-2-methoxyphenyl)amino)-1-(4-hydroxyindolin-1-yl) ethan-1-one]
< 7.00	O=C(CNc1cccc(-c2ccccn2)c1)c1c[nH]c2cc(F)c(F)cc12 [Example 122, 1-(5,6-difluoro-1H-indol-3-yl)-2-((3-(pyridin-2-yl)phenyl)amino)ethan-1-one]
